Laboratory results: patent US11524938B2, “Aromatic sulfonamide derivatives” (Bayer Pharma Aktiengesellschaft, priority 2016, dated 2022)

Target: T1, human P2X4 (Homo sapiens, UniProt Q99571)
T1 sequence (Q99571 1-388): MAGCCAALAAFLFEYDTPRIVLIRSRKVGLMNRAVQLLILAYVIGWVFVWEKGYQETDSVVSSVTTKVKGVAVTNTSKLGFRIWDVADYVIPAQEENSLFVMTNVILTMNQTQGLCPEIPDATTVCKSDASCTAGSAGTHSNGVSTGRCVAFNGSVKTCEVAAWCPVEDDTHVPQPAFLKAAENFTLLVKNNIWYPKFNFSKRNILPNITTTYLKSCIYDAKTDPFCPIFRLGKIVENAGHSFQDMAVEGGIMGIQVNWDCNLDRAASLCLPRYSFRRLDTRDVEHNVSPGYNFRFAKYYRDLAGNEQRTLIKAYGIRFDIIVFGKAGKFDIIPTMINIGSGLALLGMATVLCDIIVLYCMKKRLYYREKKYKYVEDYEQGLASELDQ
Experiment: Human P2X4 HEK Cell FLIPR Assay
Assay type: cell-based
Details: agonist Bz-ATP at EC80; for Emax: HEK293, HEK293 cells, percentage of maximal inhibition, read-out: Human P2X4 HEK Cells (FLIPR Assay) avg Efficacy [%]; for IC50: HEK293 cells, individual values listed where some fall outside detection range
How it was run: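 Calcium flux read by FLIPR for 120 sec after Bz-ATP challenge at EC80 (established each assay day), following 30 min room-temperature compound preincubation in dye-loaded stable human P2X4 HEK293 cells. Peak RFU over basal normalized to agonist control; IC50, maximal inhibition and Hill coefficient from triplicate means.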

SMILES	Emax	IC50
NS(=O)(=O)c1cc(NC(=O)Cc2ccccc2C(F)F)ccc1-n1cc(C(F)(F)F)cn1 [Example 21, 2-[2-(Difluoromethyl)phenyl]-N-{3-sulfamoyl-4-[4-(trifluoromethyl)-1H-pyrazol-1-yl]phenyl}acetamide]	67%	170 nM
NS(=O)(=O)c1cc(NC(=O)Cc2ccc(Cl)cc2Cl)ccc1-n1cc(F)cn1 [Example 178, 2-(2,4-Dichlorophenyl)-N-[4-(4-fluoro-1H-pyrazol-1-yl)-3-sulfamoylphenyl]acetamide]	70%	40 nM
NS(=O)(=O)c1cc(NC(=O)Cc2ccccc2Cl)ccc1-n1cnc(C2CC2)n1 [Example 36, (2-Chlorophenyl)-N-[4-(3-cyclopropyl-1H-1,2,4-triazol-1-yl)-3-sulfamoylphenyl]-acetamide]	81%	667 nM
NS(=O)(=O)c1cc(NC(=O)Cc2cc(Cl)ccc2Cl)ccc1-n1cc(F)cn1 [Example 163, 2-(2,5-Dichlorophenyl)-N-[4-(4-fluoro-1H-pyrazol-1-yl)-3-sulfamoylphenyl]acetamide]	89%	93 nM
COc1ccc(CC(=O)Nc2ccc(-n3cc(C(F)(F)F)cn3)c(S(N)(=O)=O)c2)c(Cl)c1 [Example 135, 2-(2-Chloro-4-methoxyphenyl)-N-{3-sulfamoyl-4-[4-(trifluoromethyl)-1H-pyrazol-1-yl]phenyl}acetamide]	90%	73 nM
COCCc1cnn(-c2ccc(NC(=O)Cc3ccccc3Cl)cc2S(N)(=O)=O)c1 [Example 256, 2-(2-Chlorophenyl)-N-{4-[4-(2-methoxyethyl)-1H-pyrazol-1-yl]-3-sulfamoylphenyl}-acetamide]	83%	130 nM
Cc1ccccc1CC(=O)Nc1ccc(-n2cc(C(F)(F)F)cn2)c(S(N)(=O)=O)c1 [Example 123, 2-(2-Methylphenyl)-N-{3-sulfamoyl-4-[4-(trifluoromethyl)-1H-pyrazol-1-yl]phenyl}-acetamide]	79%	109 nM
NS(=O)(=O)c1cc(NC(=O)Cc2ccccc2F)ccc1-n1cc(Br)cn1 [Example 63, N-[4-(4-Bromo-1H-pyrazol-1-yl)-3-sulfamoylphenyl]-2-(2-fluorophenyl)acetamide]	87%	130 nM
NS(=O)(=O)c1cc(NC(=O)Cc2cccnc2Cl)ccc1-n1cc(F)cn1 [Example 158, 2-(2-Chloropyridin-3-yl)-N-[4-(4-fluoro-1H-pyrazol-1-yl)-3-sulfamoylphenyl]acetamide]	89%	2600 nM
COc1ccccc1CC(=O)Nc1ccc(-n2cc(C#N)cn2)c(S(N)(=O)=O)c1 [Example 182, N-[4-(4-Cyano-1H-pyrazol-1-yl)-3-sulfamoylphenyl]-2-(2-methoxyphenyl)acetamide]	89%	161 nM
NS(=O)(=O)c1cc(NC(=O)Cc2ccc(F)cc2)ccc1-c1cnn(C(F)F)c1 [Example 227, N-{4-[1-(Difluoromethyl)-1H-pyrazol-4-yl]-3-sulfamoylphenyl}-2-(4-fluorophenyl)-acetamide]	95%	404 nM

Results, then the molecule that gave them:

Emax	IC50	SMILES
79%	1 nM	N#Cc1cn(-c2ccc(NC(=O)Cc3ccccc3Cl)cc2S(N)(=O)=O)nc1Br [Example 540, N-[4-(3-Bromo-4-cyano-1H-pyrazol-1-yl)-3-sulfamoylphenyl]-2-(2-chlorophenyl)acetamide]
81%	36 nM	COc1cnc(Cl)c(-c2ccc(NC(=O)Cc3ccccc3Cl)cc2S(N)(=O)=O)c1 [Example 290, N-[4-(2-Chloro-5-methoxypyridin-3-yl)-3-sulfamoylphenyl]-2-(2-chlorophenyl)acetamide]
103%	5 nM	COCCn1cc(-c2ccc(NC(=O)Cc3ccccc3Cl)cc2S(N)(=O)=O)cn1 [Example 268, 2-(2-Chlorophenyl)-N-{4-[1-(2-methoxyethyl)-1H-pyrazol-4-yl]-3-sulfamoylphenyl}-acetamide]
88%	1 nM	NS(=O)(=O)c1cc(NC(=O)Cc2ccccc2Cl)ccc1-c1ccncc1 [Example 552, 2-(2-Chlorophenyl)-N-[4-(pyridin-4-yl)-3-sulfamoylphenyl]acetamide]
76%	62 nM	Cn1cc(-c2ccc(NC(=O)Cc3ccccc3Cl)cc2S(N)(=O)=O)c(C(F)(F)F)n1 [Example 355, 2-(2-Chlorophenyl)-N-{4-[1-methyl-3-(trifluoromethyl)-1H-pyrazol-4-yl]-3-sulfamoylphenyl}acetamide]
87%	22 nM	NS(=O)(=O)c1cc(NC(=O)Cc2ccccc2Cl)ccc1-c1ccns1 [Example 496, 2-(2-Chlorophenyl)-N-[3-sulfamoyl-4-(1,2-thiazol-5-yl)phenyl]acetamide]
43%	> 25000 nM	NS(=O)(=O)c1cc(NC(=O)Cc2ccccc2F)ccc1-n1cc2ccccc2n1 [Example 397, 2-(2-Fluorophenyl)-N-[4-(2H-indazol-2-yl)-3-sulfamoylphenyl]acetamide]
75%	76 nM	NS(=O)(=O)c1cc(NC(=O)Cc2ccccc2Cl)ccc1-c1cnn(Cc2ccccc2)c1 [Example 293, N-[4-(1-Benzyl-1H-pyrazol-4-yl)-3-sulfamoylphenyl]-2-(2-chlorophenyl)acetamide]
103%	127 nM	CC(C)(C)c1nn(-c2ccc(NC(=O)Cc3ccccc3Cl)cc2S(N)(=O)=O)cc1C#N [Example 539, N-[4-(3-tert-Butyl-4-cyano-1H-pyrazol-1-yl)-3-sulfamoylphenyl]-2-(2-chlorophenyl)acetamide]
77%	22 nM	NS(=O)(=O)c1cc(NC(=O)Cc2ccccc2Cl)cnc1-n1cc(Br)cn1 [Example 389, N-[6-(4-Bromo-1H-pyrazol-1-yl)-5-sulfamoylpyridin-3-yl]-2-(2-chlorophenyl)-acetamide]
71%	60 nM	NS(=O)(=O)c1cc(NC(=O)Cc2c(F)cccc2Cl)ccc1-c1cncc(C(F)(F)F)c1 [Example 445, 2-(2-Chloro-6-fluorophenyl)-N-{3-sulfamoyl-4-[5-(trifluoromethyl)pyridin-3-yl]phenyl}acetamide]
110%	108 nM	Cc1c(-c2ccc(NC(=O)Cc3ccccc3Cl)cc2S(N)(=O)=O)cnn1-c1ccccc1 [Example 363, 2-(2-Chlorophenyl)-N-[4-(5-methyl-1-phenyl-1H-pyrazol-4-yl)-3-sulfamoylphenyl]-acetamide]
84%	646 nM	NS(=O)(=O)c1cc(NC(=O)Cc2ccccc2F)ccc1-c1ccc(Cl)nc1 [Example 460, N-[4-(6-Chloropyridin-3-yl)-3-sulfamoylphenyl]-2-(2-fluorophenyl)acetamide]
104%	285 nM	CC(C)Oc1ncc(-c2ccc(NC(=O)Cc3ccccc3Cl)cc2S(N)(=O)=O)cn1 [Example 311, 2-(2-Chlorophenyl)-N-{4-[2-(propan-2-yloxy)pyrimidin-5-yl]-3-sulfamoylphenyl}acetamide]
89%	74 nM	NS(=O)(=O)c1cc(NC(=O)Cc2ccccc2F)ccc1-n1cc(C(F)(F)F)nn1 [Example 413, 2-(2-Fluorophenyl)-N-{3-sulfamoyl-4-[4-(trifluoromethyl)-1H-1,2,3-triazol-1-yl]phenyl}acetamide]
